Where a name gives a salt, the structure may show the parent alone. Read-outs that look alike come from different tables or passages of the source.
System: SU-DHL-4 cells
Experiment: Inhibitory effect on cell viability in SU-DHL-4 cell line (Test Example 1)
Type: cell-based, human
Details: SU-DHL-4 cells, 72 hours, Cell Counting Kit-8, concentration showing 90% inhibition of cell viability, read-out: SU-DHL-4 Cell Viability Inhibition Rate IC90
Outline: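 SU-DHL-4 cells were grown at 37° C. under 5% CO2 in RPMI1640 with 10 vol % heat-inactivated FBS plus penicillin/streptomycin, seeded and precultured for 18 to 25 hours, then exposed to test compound at 0.1 vol % DMSO for 72 hours. Viability was read with Cell Counting Kit-8 by absorbance at 450 nm.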

| SMILES | IC90 | IC90 (Homo sapiens) |
| --- | --- | --- |
| CCC(=O)N1c2ccccc2[C@H](Nc2ccc(C(=O)NCCCNC(=O)c3ccc(Cn4c(C(=O)OCCN(C)C)cc5c4CCCC5=O)cc3)cc2)C[C@@H]1C [Compound 15e, 2-(Dimethylamino)ethyl 1-(4-((3-(4-(((2S,4R)-2-methyl-1-propionyl-1,2,3,4-tetrahydroquinolin-4-yl)amino)benzamide)propyl)carbamoyl)benzyl)-4-oxo-4,5,6,7-tetrahydro-1H-indole-2-carboxylate] | 34 nM |  |
| CCC(=O)N1c2ccccc2[C@H](Nc2ccc(-c3nnc(CNC(=O)c4ccc(OCCN5CCN(C)C(=O)[C@H]5C)cc4)o3)cc2)C[C@@H]1C [Compound 16b, 4-(2-((R)-2,4-Dimethyl-3-oxopiperazin-1-yl)ethoxy)-N-((5-(4-(((2S,4R)-2-methyl-1-propionyl-1,2,3,4-tetrahydroquinolin-4-yl)amino)phenyl)-1,3,4-oxadiazol-2-yl)methyl)benzamide] |  | 2.05 nM |
| CCC(=O)N1c2ccccc2[C@H](NCc2ccc(C(=O)NCc3cn(-c4ccc(N[C@@H]5C[C@H](C)N(C(=O)CC)c6ccccc65)cc4)nn3)cc2)C[C@@H]1C (relative stereo) [Compound 10h, 4-((a2S*,4R*)-2-Methyl-1-propionyl-1,2,3,4-tetrahydroquinolin-4-yl)amino)methyl)-N-((1-(4-(((2S,4R)-2-methyl-1-propionyl-1,2,3,4-tetrahydroquinolin-4-yl)amino)phenyl)-1H-1,2,3-triazol-4-yl)methyl)benzamide] | 0.35 nM |  |
| CCC(=O)N1c2ccccc2[C@H](Nc2ccc(C(=O)NCC#CC(=O)NC3CCC(N[C@@H]4C[C@H](C)N(C(=O)CC)c5ccccc54)CC3)cc2)C[C@@H]1C (stereo partly drawn) [Compound 8m, 4-(((2S,4R)-2-Methyl-1-propionyl-1,2,3,4-tetrahydroquinolin-4-yl)amino)-N-(4-(((1R,4r)-4-(((2S,4R)-2-methyl-1-propionyl-1,2,3,4-tetrahydroquinolin-4-yl)amino)cyclohexyl)amino)-4-oxobut-2-yn-1-yl)benzamide] | 0.11 nM |  |
| Cc1sc2c(c1C)C(c1ccc(C(=O)NC3CCN(C(=O)c4ccc(C5=N[C@@H](CC(=O)OC(C)(C)C)c6nnc(C)n6-c6sc(C)c(C)c65)cc4)CC3)cc1)=N[C@@H](CC(=O)OC(C)(C)C)c1nnc(C)n1-2 [Compound 1i, tert-Butyl 2-((S)-4-{4-[4-(4-{(S)-6-[2-(tert-butoxy)-2-oxoethyl]-2,3,9-trimethyl-6H-thieno[3,2-f][1,2,4]triazolo[4,3-a][1,4]diazepin-4-yl}benzamide)piperidine-1-carbonyl]phenyl}-2,3,9-trimethyl-6H-thieno[3,2-f][1,2,4]triazolo[4,3-a][1,4]diazepin-6-yl)acetate] | 0.54 nM |  |
| CCC(=O)N1c2ccccc2[C@H](Nc2ccc(NC(=O)c3cccc(NC(=O)c4ccc(N[C@@H]5C[C@H](C)N(C(=O)CC)c6ccccc65)cc4)c3)cc2)C[C@@H]1C (relative stereo) [Compound 2j, 3-(4-{[(2S,4R)-2-Methyl-1-propionyl-1,2,3,4-tetrahydroquinolin-4-yl]amino}benzamide)-N-(4-{[(2S*,4R*)-2-methyl-1-propionyl-1,2,3,4-tetrahydroquinolin-4-yl]amino}phenyl)benzamide] | 0.36 nM |  |
| CCC(=O)N1c2ccccc2[C@H](Nc2ccc(C(=O)NCCCNC(=O)c3ccc(C(O)c4cc(O)cc(-c5c(C)noc5C)c4)cc3)cc2)C[C@@H]1C (relative stereo) [Compound 1d, 4-{[3-(3,5-Dimethylisoxazol-4-yl)-5-hydroxyphenyl](hydroxy)methyl}-N-[3-(4-{[(2S*,4R*)-2-methyl-1-propionyl-1,2,3,4-tetrahydroquinolin-4-yl]amino}benzamide)propyl]benzamide] | 38 nM |  |
| CCC(=O)N1c2ccccc2[C@H](Nc2ccc(NC(=O)COC(=O)N[C@H]3CC[C@H](N[C@@H]4C[C@H](C)N(C(=O)CC)c5ccccc54)CC3)cc2)C[C@@H]1C [Compound 7f, 2-((4-(((2S,4R)-2-Methyl-1-propionyl-1,2,3,4-tetrahydroquinolin-4-yl)amino)phenyl)amino)-2-oxoethyl ((1R,4R)-4-(((2S,4R)-2-methyl-1-propionyl-1,2,3,4-tetrahydroquinolin-4-yl)amino)cyclohexyl)carbamate] | 3.2 nM |  |
| CCC(=O)N1c2ccccc2[C@H](Nc2ccc(NC(=O)CCNS(=O)(=O)c3ccc(N[C@@H]4C[C@H](C)N(C(=O)CC)c5ccccc54)cc3)cc2)C[C@@H]1C [Compound 6e, N-(4-(((2S,4R)-2-Methyl-1-propionyl-1,2,3,4-tetrahydroquinolin-4-yl)amino)phenyl)-3-((4-(((2S,4R)-2-methyl-1-propionyl-1,2,3,4-tetrahydroquinolin-4-yl)amino)phenyl)sulfonamide)propanamide] | 4.31 nM |  |
| CCC(=O)N1c2ccccc2[C@H](Nc2ccc(CNCc3cn(-c4ccc(N[C@@H]5C[C@H](C)N(C(=O)CC)c6ccccc65)nc4)nn3)cc2)C[C@@H]1C [Compound 17e, 1-((2S,4R)-2-Methyl-4-((4-((((1-(6-(((2S,4R)-2-methyl-1-propionyl-1,2,3,4-tetrahydroquinolin-4-yl)amino)pyridin-3-yl)-1H-1,2,3-triazol-4-yl)methyl)amino)methyl)phenyl)amino)-3,4-dihydroquinolin-1(2H)-yl)propan-1-one] |  | 1.82 nM |
| CCC(=O)N1c2ccccc2[C@H](Nc2ccc(-n3cc(CCNC(=O)C4CCN(Cc5cc(O)cc(-c6c(C)noc6C)c5)CC4)nn3)cc2)C[C@@H]1C [Compound 17l, 1-(3-(3,5-Dimethylisoxazol-4-yl)-5-hydroxybenzyl)-N-(2-(1-(4-(((2S,4R)-2-methyl-1-propionyl-1,2,3,4-tetrahydroquinolin-4-yl)amino)phenyl)-1H-1,2,3-triazol-4-yl)ethyl)piperidine-4-carboxamide formate] |  | 1.89 nM |
| CCC(=O)N1c2ccccc2[C@H](Nc2ccc(SCCNC(=O)C3CCC(N[C@@H]4C[C@H](C)N(C(=O)CC)c5ccccc54)CC3)cc2)C[C@@H]1C (relative stereo) [Compound 8i, (1R,4R)-4-(((2S*,4R*)-2-Methyl-1-propionyl-1,2,3,4-tetrahydroquinolin-4-yl)amino)-N-(2-((4-(((2S,4R)-2-methyl-1-propionyl-1,2,3,4-tetrahydroquinolin-4-yl)amino)phenyl)thio)ethyl)cyclohexane-1-carboxamide] | 2.69 nM |  |
| CCC(=O)N1c2ccccc2[C@H](Nc2ccc(NC(=O)C3CN(C(=O)[C@H]4CC[C@H](N[C@@H]5C[C@H](C)N(C(=O)CC)c6ccccc65)CC4)C3)cc2)C[C@@H]1C [Compound 8c, 1-((1R,4R)-4-(((2S,4R)-2-Methyl-1-propionyl-1,2,3,4-tetrahydroquinolin-4-yl)amino)cyclohexane-1-carbonyl)-N-(4-(((2S,4R)-2-methyl-1-propionyl-1,2,3,4-tetrahydroquinolin-4-yl)amino)phenyl)azetidine-3-carboxamide] | 0.26 nM |  |
| CCC(=O)N1c2ccccc2[C@H](Nc2ccc(NC(=O)CCCC(=O)NC34CCC(NCc5cc(O)cc(-c6c(C)noc6C)c5)(CC3)CC4)cc2)C[C@@H]1C [Compound 17c, N^1-(4-((3-(3,5-Dimethylisoxazol-4-yl)-5-hydroxybenzyl)amino)bicyclo[2.2.2]octan-1-yl)-N5-(4-(((2S,4R)-2-methyl-1-propionyl-1,2,3,4-tetrahydroquinolin-4-yl)amino)phenyl)glutaramide] |  | 2.05 nM |
| CCC(=O)N1c2ccccc2[C@H](Nc2ccc(NC(=O)C3CN(C(=O)c4ccc(C5CCN(c6ccc7nnc(Cl)n7n6)CC5)cc4)C3)cc2)C[C@@H]1C [Compound 17p, 1-(4-(1-(3-Chloro-[1,2,4]triazolo[4,3-b]pyridazin-6-yl)piperidin-4-yl)benzoyl)-N-(4-(((2S,4R)-2-methyl-1-propionyl-1,2,3,4-tetrahydroquinolin-4-yl)amino)phenyl)azetidine-3-carboxamide] |  | 0.35 nM |
| CCC(=O)N1c2ccccc2[C@H](Nc2ccc(NC(=O)C3CN(C(=O)c4ccc(OCCN5CCN(C)C(=O)[C@H]5C)cc4)C3)cc2)C[C@@H]1C [Compound 16a, 1-(4-(2-((R)-2,4-Dimethyl-3-oxopiperazin-1-yl)ethoxy)benzoyl)-N-(4-(((2S,4R)-2-methyl-1-propionyl-1,2,3,4-tetrahydroquinolin-4-yl)amino)phenyl)azetidine-3-carboxamide] |  | 11.1 nM |
| CCC(=O)N1c2ccccc2[C@H](Nc2ccc(-c3cnn(CCNC(=O)C4CCC(N[C@@H]5C[C@H](C)N(C(=O)CC)c6ccccc65)CC4)c3)cc2)C[C@@H]1C (relative stereo) [Compound 8o, (1R,4r)-4-(((2S*,4R*)-2-Methyl-1-propionyl-1,2,3,4-tetrahydroquinolin-4-yl)amino)-N-(2-(4-(4-(((2S,4R)-2-methyl-1-propionyl-1,2,3,4-tetrahydroquinolin-4-yl)amino)phenyl)-1H-pyrazol-1-yl)ethyl)cyclohexane-1-carboxamide] | 0.49 nM |  |
| CCC(=O)N1c2ccccc2[C@H](Nc2ccc(-n3cc(CNC(=O)C4CCN(Cc5cc(O)cc(-c6c(C)noc6C)c5)CC4)nn3)cc2)C[C@@H]1C [Compound 16d, 1-(3-(3,5-Dimethylisoxazol-4-yl)-5-hydroxybenzyl)-N-((1-(4-(((2S,4R)-2-methyl-1-propionyl-1,2,3,4-tetrahydroquinolin-4-yl)amino)phenyl)-1H-1,2,3-triazol-4-yl)methyl)piperidine-4-carboxamide] |  | 0.17 nM |
| CCC(=O)N1c2ccccc2[C@H](Nc2ccc(C(=O)NCCCNC(=O)c3ccc(Cn4c(C(=O)OC)cc5c4CCCC5=O)cc3)cc2)C[C@@H]1C [Compound 15g, Methyl 1-(4-((3-(4-(((2S,4R)-2-methyl-1-propionyl-1,2,3,4-tetrahydroquinolin-4-yl)amino)benzamide)propyl)carbamoyl)benzyl)-4-oxo-4,5,6,7-tetrahydro-1H-indole-2-carboxylate] | 5.03 nM |  |

— patent US20220378923A1, “BET DEGRADER” (KYOWA KIRIN CO., LTD., priority 2019, published 2022)
